This note sets out measurements from patent US8546414B2, “Ion channel modulators and methods of use” (Vertex Pharmaceuticals Incorporated, priority 2004, dated 2013).

Where only a bound is given, the exact number is not on record here.

One experiment deals with T1, NaV1.3 (Homo sapiens, UniProt Q9NY46).
T1 construct: expressed in transfected cells; host or cells: HEK293
The experiment can be described thus: VIPR optical membrane potential assay with electrical stimulation, NaV1.3. It is filed as cell-based. Particulars: Table 9, NaV 1.3 receptors. The procedure: Antagonist properties of test compounds were assessed as follows. Cells expressing the NaV of interest were placed into microtiter plates. After an incubation period, the cells were stained with fluorescent dyes sensitive to the transmembrane potential. The test compounds were added to the microtiter plate. The cells were stimulated with either chemical or electrical means to evoke a NaV dependent membrane potential change from unblocked channels, which was detected and measured with trans-membrane potential-sensitive dyes. Antagonists were detected as a decreased membrane potential response to the stimulus.
(§1) VIPR® Optical Membrane Potential Assay Method with Electrical Stimulation
The following is an example of how NaV1.3 inhibition activity is measured using the optical membrane potential method#2. Other subtypes are performed in an analogous mode in a cell line expressing the NaV of interest.
HEK293 cells stably expressing NaV1.3 are plated into 96-well microtiter plates. After an appropriate incubation period, the cells are stained with the voltage sensitive dyes CC2-DMPE/DiSBAC2(3) as follows.
2X CC2-DMPE=20 μM CC2-DMPE: 10 mM CC2-DMPE is vortexed with an equivalent volume of 10% pluronic, followed by vortexing in required amount of HBSS containing 10 mM HEPES. Each cell plate will require 5 mL of 2×CC2-DMPE. 50 μL of 2×CC2-DMPE is added to wells containing washed cells, resulting in a 10 μM final staining concentration. The cells are stained for 30 minutes in the dark at RT.
2X DISBAC2(3) with ABSC1=6 μM DISBAC2(3) and 1 mM ABSC1: The required amount of 10 mM DISBAC2(3) is added to a 50 ml conical tube and mixed with 1 μL 10% pluronic for each mL of solution to be made and vortexed together. Then HBSS/HEPES is added to make up 2× solution. Finally, the ABSC1 is added.
The 2X DiSBAC2(3) solution can be used to solvate compound plates. Note that compound plates are made at 2× drug concentration. Wash stained plate again, leaving residual volume of 50 Add 50 μL/well of the 2X DiSBAC2(3) w/ABSC1. Stain for 30 minutes in the dark at RT.
(§2) The instrument comprises a microtiter plate handler, an optical system for exciting the coumarin dye while simultaneously recording the coumarin and oxonol emissions, a waveform generator, a current- or voltage-controlled amplifier, and a device for inserting electrodes in well. Under integrated computer control, this instrument passes user-programmed electrical stimulus protocols to cells within the wells of the microtiter plate.
• 1. Insert or use electrodes into each well to be assayed. • 2. Use the current-controlled amplifier to deliver stimulation wave pulses for 3 s. Two seconds of pre-stimulus recording are performed to obtain the un-stimulated intensities. Five seconds of post-stimulation recording are performed to examine the relaxation to the resting state. Data Analysis
(§3) Data are analyzed and reported as normalized ratios of background-subtracted emission intensities measured in the 460 nm and 580 nm channels. Background intensities are then subtracted from each assay channel. Background intensities are obtained by measuring the emission intensities during the same time periods from identically treated assay wells in which there are no cells. The response as a function of time is then reported as the ratios obtained using the following formula: […]
(§4) The data is further reduced by calculating the initial (Ri) and final (Rf) ratios. These are the average ratio values during part or all of the pre-stimulation period, and during sample points during the stimulation period. The response to the stimulus R=Rf/Ri is then calculated.
Control responses are obtained by performing assays in the presence of a compound with the desired properties (positive control), such as tetracaine, and in the absence of pharmacological agents (negative control). Responses to the negative (N) and positive (P) controls are calculated as above. The compound antagonist activity A is defined as: […]

The next experiment addresses T2, CaV2.2 (Homo sapiens, UniProt Q00975).
T2 construct: expressed in transfected cells; host or cells: HEK293
The experiment is described as follows: VIPR optical membrane potential assay with electrical stimulation, CaV2.2. The class given is cell-based. Particulars: Table 9, CaV 2.2 receptors. The procedure:
A. Optical Methods for Assaying CaV Inhibition Properties of Compounds:
Antagonist properties of test compounds were assessed as follows. Cells expressing the CaV of interest were placed into microtiter plates. After an incubation period, the cells were stained with fluorescent dyes sensitive to the transmembrane potential. The test compounds were added to the microtiter plate. The cells were stimulated with electrical means to evoke a CaV dependent membrane potential change from unblocked channels, which was detected and measured with trans-membrane potential-sensitive dyes. Antagonists were detected as a decreased membrane potential response to the stimulus.
as §1
The following is an example of how CaV2.2 inhibition activity is measured using the optical membrane potential method. Other subtypes are performed in an analogous mode in a cell line expressing the CaV of interest.
HEK293 cells stably expressing CaV2.2 are plated into 96-well microtiter plates. After an appropriate incubation period, the cells are stained with the voltage sensitive dyes CC2-DMPE/DiSBAC2(3) as follows.
2X CC2-DMPE=20 μM CC2-DMPE: 10 mM CC2-DMPE is vortexed with an equivalent volume of 10% Pluronic, followed by vortexing in required amount of HBSS containing 10 mM HEPES. Each cell plate will require 5 mL of 2×CC2-DMPE. 50 μL of 2×CC2-DMPE is added to wells containing washed cells, resulting in a 10 μM final staining concentration. The cells are stained for 30 minutes in the dark at RT.
Vortex in required amount of Bath X with beta-cyclodextrin. Each 96 well cell plate will require 5 ml of 2XCC2DMPE. Wash plate with ELx405 with Bath X, leaving a residual volume of 50 μL/well. Add 50 μL of 2XCC2DMPE & […] to each well. Stain for 30 minutes in the dark at RT.
Allow solution to sit for 10 minutes. Slowly mix in 370 mM BaCl2. This solution can be used to solvate compound plates. Note that compound plates are made at 1.5× drug concentration and not the usual 2X. Wash CC2 stained plate, again, leaving residual volume of 50 μL. Add 100 uL/well of the AY17 solution. Stain for 15 minutes in the dark at RT. Run plate on the optical reader.
as §2
Insert or use electrodes into each well to be assayed.
Use the current-controlled amplifier to deliver stimulation wave pulses for 3-5 s. Two seconds of pre-stimulus recording are performed to obtain the un-stimulated intensities. Five seconds of post-stimulation recording are performed to examine the relaxation to the resting state.
as §3, §4
Control responses are obtained by performing assays in the presence of a compound with the desired properties (positive control), such as mibefradil, and in the absence of pharmacological agents (negative control).

T1 sequence (Q9NY46 whole entry): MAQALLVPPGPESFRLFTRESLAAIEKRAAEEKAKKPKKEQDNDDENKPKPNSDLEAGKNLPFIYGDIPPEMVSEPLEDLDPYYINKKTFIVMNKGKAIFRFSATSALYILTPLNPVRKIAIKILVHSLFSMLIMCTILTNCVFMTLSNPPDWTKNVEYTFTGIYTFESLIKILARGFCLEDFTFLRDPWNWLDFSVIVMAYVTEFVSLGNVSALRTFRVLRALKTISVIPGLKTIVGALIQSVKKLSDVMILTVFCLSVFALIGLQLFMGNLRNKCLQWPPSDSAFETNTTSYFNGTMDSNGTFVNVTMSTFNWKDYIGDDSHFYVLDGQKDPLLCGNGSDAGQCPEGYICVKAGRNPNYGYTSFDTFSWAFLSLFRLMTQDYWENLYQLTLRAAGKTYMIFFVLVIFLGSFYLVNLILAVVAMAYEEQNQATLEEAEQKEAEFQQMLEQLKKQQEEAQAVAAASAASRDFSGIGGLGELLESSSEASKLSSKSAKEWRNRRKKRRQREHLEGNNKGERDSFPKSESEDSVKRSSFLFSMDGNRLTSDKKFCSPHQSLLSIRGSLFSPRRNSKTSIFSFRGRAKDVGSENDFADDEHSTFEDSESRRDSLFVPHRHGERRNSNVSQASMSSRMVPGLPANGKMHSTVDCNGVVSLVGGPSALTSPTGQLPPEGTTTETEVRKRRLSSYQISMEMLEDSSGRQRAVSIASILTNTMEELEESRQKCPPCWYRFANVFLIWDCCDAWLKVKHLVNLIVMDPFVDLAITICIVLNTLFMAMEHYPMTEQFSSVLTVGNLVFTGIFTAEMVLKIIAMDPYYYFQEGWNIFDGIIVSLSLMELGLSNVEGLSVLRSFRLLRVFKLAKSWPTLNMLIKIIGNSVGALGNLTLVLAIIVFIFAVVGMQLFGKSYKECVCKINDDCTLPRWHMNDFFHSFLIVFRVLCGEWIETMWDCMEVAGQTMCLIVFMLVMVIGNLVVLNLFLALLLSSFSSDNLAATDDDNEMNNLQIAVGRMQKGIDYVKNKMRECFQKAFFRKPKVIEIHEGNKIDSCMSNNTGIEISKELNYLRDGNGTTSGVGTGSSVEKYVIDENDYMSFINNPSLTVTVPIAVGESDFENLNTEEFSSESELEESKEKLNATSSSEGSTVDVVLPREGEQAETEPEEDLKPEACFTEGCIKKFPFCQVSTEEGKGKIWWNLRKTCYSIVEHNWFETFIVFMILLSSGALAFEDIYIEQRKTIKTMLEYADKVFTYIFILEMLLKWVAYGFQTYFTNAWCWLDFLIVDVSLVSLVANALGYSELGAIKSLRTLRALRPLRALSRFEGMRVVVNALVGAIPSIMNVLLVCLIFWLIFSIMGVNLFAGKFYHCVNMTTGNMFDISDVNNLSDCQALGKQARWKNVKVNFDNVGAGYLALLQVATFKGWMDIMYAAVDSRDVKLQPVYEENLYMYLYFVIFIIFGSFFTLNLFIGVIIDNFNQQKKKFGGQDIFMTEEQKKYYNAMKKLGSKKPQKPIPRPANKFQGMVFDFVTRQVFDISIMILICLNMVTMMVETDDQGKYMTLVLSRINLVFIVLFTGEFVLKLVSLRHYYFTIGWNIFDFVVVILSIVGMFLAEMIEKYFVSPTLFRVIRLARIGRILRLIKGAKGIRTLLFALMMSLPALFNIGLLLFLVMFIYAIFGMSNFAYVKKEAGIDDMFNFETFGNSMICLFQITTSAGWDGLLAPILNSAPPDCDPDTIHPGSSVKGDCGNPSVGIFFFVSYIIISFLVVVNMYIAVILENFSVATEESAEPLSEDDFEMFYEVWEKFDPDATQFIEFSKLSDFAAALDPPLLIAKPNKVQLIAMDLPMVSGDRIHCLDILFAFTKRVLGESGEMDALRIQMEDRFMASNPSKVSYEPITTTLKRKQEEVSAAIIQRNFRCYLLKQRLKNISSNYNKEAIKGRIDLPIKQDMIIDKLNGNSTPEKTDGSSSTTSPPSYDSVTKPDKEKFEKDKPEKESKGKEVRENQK

As a reminder, the IC50 is the concentration that inhibits the measured activity by half. High values mean lower potency, low ones higher potency. For the molecule `CCN(Cc1cccc(C)c1)C(=O)c1cnc(N2CCN(C(C)=O)CC2)nc1-c1ccc(C#N)cc1` [compound 208], the IC50 against NaV1.3 and against CaV2.2 was greater than 10 µM throughout.
Regarding `CCN(Cc1cccc(C)c1)C(=O)c1cnc(NCC2CC2)nc1-c1ccccc1F` [compound 209], the IC50 against NaV1.3 and against CaV2.2 was greater than 10 µM throughout.
Consider `N#Cc1ccc(-c2nc(NC3CCCCC3)ncc2C(=O)N2CCCC2)cc1` [compound 210], for which the IC50 against NaV1.3 and against CaV2.2 was greater than 10 µM each time.
Consider `CC(C)N(Cc1ccccc1)C(=O)c1cnc(N2CCCC2)nc1-c1ccc(C#N)cc1` [compound 211], for which the IC50 against NaV1.3 and at CaV2.2 was greater than 10 µM each time.
Consider `CC(=O)N1CCN(c2ncc(C(=O)N(Cc3ccccc3)C(C)C)c(-c3ccccc3F)n2)CC1` [compound 216], for which the IC50 on NaV1.3 and against CaV2.2 was greater than 10 µM throughout.
Turning to `CC1C(NC(=O)c2cnc(N3CCOCC3)nc2-c2ccc(C#N)cc2)CC2CC1C2(C)C` (centres unmarked) [compound 217], the IC50 at NaV1.3 and against CaV2.2 was greater than 10 µM throughout.
For the molecule `CCCCNC(=O)c1cnc(NC2CCCC2)nc1-c1cccc(C)c1` [compound 218], the 50% inhibitory concentration (IC50) against NaV1.3 and against CaV2.2 was greater than 10 µM throughout.
Take `CCC1CCC(C)N(C(=O)c2cnc(NCC3CC3)nc2-c2ccccc2F)C1` (centres unmarked) [compound 219]: the results for the IC50 at NaV1.3 and against CaV2.2 were greater than 10 µM and 2 to 10 µM, respectively.
Consider `CC1CC(C)CN(C(=O)c2cnc(NCCc3cccc(F)c3)nc2-c2ccc(C#N)cc2)C1` (centres unmarked) [compound 220], for which the IC50 was greater than 10 µM on NaV1.3 and 2 to 10 µM at CaV2.2.
Turning to `CCN(Cc1ccccc1)C(=O)c1cnc(NCc2ccc3c(c2)OCO3)nc1-c1ccccc1F` [compound 222], the 50% inhibitory concentration (IC50) against NaV1.3 and on CaV2.2 was greater than 10 µM each time.
For `CCN(C)c1ncc(C(=O)NCCCOC)c(-c2cccc(C)c2)n1` [compound 223], the IC50 against NaV1.3 and at CaV2.2 was greater than 10 µM in each case.
On to `O=C(NCc1ccccc1)c1cnc(NCCc2cccc(F)c2)nc1-c1ccccc1F` [compound 224], for which the half-inhibitory concentration (IC50) at NaV1.3 and against CaV2.2 was greater than 10 µM in each case.
For the molecule `CC(=O)N1CCN(c2ncc(C(=O)N(C)CC(C)C)c(-c3ccc(-c4ccccc4)cc3)n2)CC1` [compound 225], the results for the IC50 at NaV1.3 and at CaV2.2 were greater than 10 µM and 2 to 10 µM, respectively.
Consider `CC(=O)N1CCN(c2ncc(C(=O)N3CCOCC3)c(-c3cccc(C)c3)n2)CC1` [compound 226], for which the IC50 at NaV1.3 and against CaV2.2 was greater than 10 µM each time.
On to `CCN(C)c1ncc(C(=O)N(C)C2CCCCC2)c(-c2ccc(C#N)cc2)n1` [compound 227], for which the IC50 against NaV1.3 and against CaV2.2 was greater than 10 µM each time.
Take `CCC(C)NC(=O)c1cnc(NC2CC3CC(C2C)C3(C)C)nc1-c1ccc(C#N)cc1` (centres unmarked) [compound 228]: the IC50 against NaV1.3 and at CaV2.2 was greater than 10 µM in each case.
Regarding `O=C(c1cnc(N2CCOCC2)nc1-c1ccc(-c2ccccc2)cc1)N1CCCCC1` [compound 229], the IC50 at NaV1.3 and at CaV2.2 was greater than 10 µM each time.
Regarding `CCC(C)NC(=O)c1cnc(N(C)CC(C)C)nc1-c1ccc(C#N)cc1` (centres unmarked) [compound 230], the IC50 at NaV1.3 and at CaV2.2 was greater than 10 µM in each case.
As to `COCCCNc1ncc(C(=O)NCC2CC2)c(-c2ccc(C#N)cc2)n1` [compound 231], the IC50 against NaV1.3 and at CaV2.2 was greater than 10 µM in each case.
Take `CC(C)N(Cc1ccccc1)C(=O)c1cnc(N2CCOCC2)nc1-c1ccc(C#N)cc1` [compound 232]: the figures for the IC50 on NaV1.3 and at CaV2.2 were greater than 10 µM and 2 to 10 µM, respectively.
With `CCCCNC(=O)c1cnc(N2CCOCC2)nc1-c1ccccc1F` [compound 233], the half-maximal inhibitory concentration (IC50) against NaV1.3 and against CaV2.2 was greater than 10 µM each time.
For `Cc1cccc(-c2nc(NCc3cccc(Cl)c3)ncc2C(=O)N(C)CC(C)C)c1` [compound 235], the IC50 at NaV1.3 and against CaV2.2 was greater than 10 µM throughout.
Take `O=C(c1cnc(NCc2cccc(C(F)(F)F)c2)nc1-c1ccccc1F)N1CCOCC1` [compound 236]: the IC50 at NaV1.3 and on CaV2.2 was greater than 10 µM in each case.
As for `CCN(Cc1ccccc1)C(=O)c1cnc(N2CCCCC2)nc1-c1ccccc1F` [compound 237], the IC50 against NaV1.3 is greater than 10 µM; against CaV2.2 it was 2 to 10 µM.
In the case of `CC1CC(C)CN(C(=O)c2cnc(NCc3cccc(Cl)c3)nc2-c2ccc(C#N)cc2)C1` (centres unmarked) [compound 238], the IC50 on NaV1.3 and on CaV2.2 was greater than 10 µM throughout.
Turning to `CCN(Cc1cccc(C)c1)C(=O)c1cnc(NC2CCCC2)nc1-c1ccc(C#N)cc1` [compound 239], the concentration for half-maximal inhibition (IC50) is greater than 10 µM on NaV1.3 and 2 to 10 µM on CaV2.2.
For `Cc1cccc(-c2nc(N3CCOCC3)ncc2C(=O)N(Cc2ccccc2)C(C)C)c1` [compound 240], in that order: greater than 10 µM and greater than 10 µM.
On to `CC1CCN(c2ncc(C(=O)N(C)C3CCCCC3)c(-c3ccc(C#N)cc3)n2)CC1` [compound 241], for which the IC50 at NaV1.3 and against CaV2.2 was greater than 10 µM in each case.
With `O=C(NCc1ccccc1C(F)(F)F)c1cnc(N2CCOCC2)nc1-c1ccccc1F` [compound 242], the IC50 against NaV1.3 and at CaV2.2 was greater than 10 µM throughout.
As for `CCN(Cc1ccccc1)C(=O)c1cnc(N2CCOCC2)nc1-c1cccc(C)c1` [compound 243], the IC50 at NaV1.3 and on CaV2.2 was greater than 10 µM throughout.
On to `CCN(Cc1ccccc1)C(=O)c1cnc(NCc2ccc(C)o2)nc1-c1ccc(C#N)cc1` [compound 244], for which the IC50 against NaV1.3 and at CaV2.2 was greater than 10 µM each time.
On to `N#Cc1ccc(-c2nc(NCC3CCCCC3)ncc2C(=O)N2CCCCC2)cc1` [compound 245], for which the IC50 against NaV1.3 and against CaV2.2 was greater than 10 µM throughout.
For the molecule `CCN(Cc1cccc(C)c1)C(=O)c1cnc(N(C)CC)nc1-c1ccccc1F` [compound 246], the results for the IC50 at NaV1.3 and against CaV2.2 were greater than 10 µM and 2 to 10 µM, respectively.
For `CCN(Cc1cccc(C)c1)C(=O)c1cnc(N2CCOCC2)nc1-c1ccc(C#N)cc1` [compound 247], in that order: greater than 10 µM and greater than 10 µM.
